From ChEMBL document CHEMBL4840355, “Antitumor and toxicity study of mitochondria-targeted triptolide derivatives using triphenylphosphine (TPP+) as a carrier” (Bioorg Med Chem, 2021)
Calls of active or inactive are those of the source. No cut-off for these calls is given here.

Assays:
[1] = system: L02; experiment: Cytotoxicity against human HL7702 cells assessed as inhibition of cell proliferation measured after 48 hrs by MTT assay; format: cell-based; settings: L02, 48 h
[2] = system: NCI-H1975; experiment: Cytotoxicity against human NCI-H1975 cells assessed as inhibition of cell proliferation measured after 48 hrs by MTT assay; format: functional, cell-based; settings: NCI-H1975, 48 h
[3] = system: HepG2; experiment: Induction of apoptosis in human HepG2 cells assessed as late apoptotic cells at 50 nM measured after 48 hrs by Annexin V-FITC/PI double staining based flow cytometry analysis (Rvb= 2.89%); format: functional
[4] = system: HepG2; experiment: Induction of apoptosis in human HepG2 cells assessed as live cells at 75 nM measured after 48 hrs by Annexin V-FITC/PI double staining based flow cytometry analysis (Rvb= 94.8%); format: functional
[5] = system: HepG2; experiment: Induction of apoptosis in human HepG2 cells assessed as early apoptotic cells at 75 nM measured after 48 hrs by Annexin V-FITC/PI double staining based flow cytometry analysis (Rvb= 2.16%); format: functional
[6] = system: HepG2; experiment: Induction of apoptosis in human HepG2 cells assessed as necrotic cells at 75 nM measured after 48 hrs by Annexin V-FITC/PI double staining based flow cytometry analysis (Rvb= 0.13%); format: functional
[7] = system: HepG2; experiment: Induction of apoptosis in human HepG2 cells assessed as necrotic cells at 100 nM measured after 48 hrs by Annexin V-FITC/PI double staining based flow cytometry analysis (Rvb= 0.13%); format: functional
[8] = system: HepG2; experiment: Induction of apoptosis in human HepG2 cells assessed as live cells at 150 nM measured after 48 hrs by Annexin V-FITC/PI double staining based flow cytometry analysis (Rvb= 94.8%); format: functional
[9] = system: HepG2; experiment: Induction of apoptosis in human HepG2 cells assessed as late apoptotic cells at 150 nM measured after 48 hrs by Annexin V-FITC/PI double staining based flow cytometry analysis (Rvb= 2.89%); format: functional
[10] = system: HepG2; experiment: Induction of apoptosis in human HepG2 cells assessed as necrotic cells at 150 nM measured after 48 hrs by Annexin V-FITC/PI double staining based flow cytometry analysis (Rvb= 0.13%); format: functional
[11] = Drug uptake in mitochondria of human HepG2 cells at 10 uM incubated for 7 hrs by RP-HPLC method relative to TP; format: ADME; settings: hepg2, 7 h
[12] = system: HepG2; experiment: Induction of mitochondrial membrane potential loss in human HepG2 cells assessed as proportion of cells with depolarized mitochondria at 75 nM measured after 48 hrs by JC-1 staining based flow cytometry analysis (Rvb= 9.1%); format: functional
[13] = system: HepG2; experiment: Induction of mitochondrial membrane potential loss in human HepG2 cells assessed as proportion of cells with depolarized mitochondria at 150 nM measured after 48 hrs by JC-1 staining based flow cytometry analysis (Rvb= 9.1%); format: functional
[14] = system: HepG2; experiment: Induction of mitochondrial membrane potential loss in human HepG2 cells assessed as proportion of cells with hyperpolarized mitochondria at 200 nM measured after 48 hrs by JC-1 staining based flow cytometry analysis (Rvb= 80.9%); format: functional
[15] = system: HepG2; experiment: Antitumor activity against human HepG2 cells xenografted in zebra fish AB assessed as tumor growth inhibition at 0.5 to 1 uM measured after 48 hrs by fluorescence microscopic analysis; format: functional, cell-based; settings: dose 0.5-1 µM
[16] = Toxicity in zebrafish AB assessed as mortality at <12 uM measured at 72 hrs postfertilization; design: species or system Danio rerio; settings: in vivo

SMILES: CC(C)[C@]12O[C@H]1[C@@H]1O[C@]13[C@]1(O[C@H]1C[C@H]1C4=C(CC[C@@]13C)C(=O)OC4)[C@@H]2OC(=O)CCCCC[P+](c1ccccc1)(c1ccccc1)c1ccccc1.[Br-]
- IC50 [1]: 334 nM
- IC50 [2]: 88 nM
- Activity [3]: 1.23%
- Activity [4]: 76.8%
- Activity [5]: 15.5%
- Activity [6]: 0.17%
- Activity [7]: 0.18%
- Activity [8]: 49.6%
- Activity [9]: 16.6%
- Activity [10]: 0.1%
- fold change (FC) [11]: 3
- Activity [12]: 35.6%
- Activity [13]: 48.9%
- Activity [14]: 44.3%
- Activity [15]: Active
- Activity [16]: Non-Toxic
